{"source": "patent US12139472B2", "about": "“Inhibitors of advanced glycation end products” (priority 2019, dated 2024)", "format_in_all_cases": "in vitro ADME", "key": {"[1]": {"target": "T1, CYP1A (Homo sapiens, UniProt P05177)", "T1 construct": "Two studies were conducted in human liver microsomes (HLM); tissue Eurofins G232 panel; host or cells: human liver microsomes", "T1 sequence (P05177 1-516)": "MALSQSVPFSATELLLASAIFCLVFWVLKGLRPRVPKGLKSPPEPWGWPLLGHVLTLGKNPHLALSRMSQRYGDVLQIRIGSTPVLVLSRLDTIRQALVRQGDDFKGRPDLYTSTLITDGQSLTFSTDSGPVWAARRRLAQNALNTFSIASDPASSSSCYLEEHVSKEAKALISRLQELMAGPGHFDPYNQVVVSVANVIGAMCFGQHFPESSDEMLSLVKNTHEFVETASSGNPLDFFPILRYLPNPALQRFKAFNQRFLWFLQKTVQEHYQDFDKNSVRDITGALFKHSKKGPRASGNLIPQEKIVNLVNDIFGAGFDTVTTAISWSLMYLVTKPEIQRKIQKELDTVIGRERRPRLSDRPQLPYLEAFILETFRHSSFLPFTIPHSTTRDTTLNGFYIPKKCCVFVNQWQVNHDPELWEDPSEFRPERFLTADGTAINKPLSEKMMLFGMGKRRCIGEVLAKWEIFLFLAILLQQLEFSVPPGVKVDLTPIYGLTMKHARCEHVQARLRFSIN", "test": "CYP1A inhibition (HLM) phenacetin", "protocol": "(§1) Compound 5 (PTG-630 free base) and 7 additional compounds for CYP3A P450 inhibition.\n(§2) Two studies were conducted in human liver microsomes (HLM). Lead candidate PTG-630 was tested using the Eurofins G232 panel (Drug Metab Dispos. 2001 January; 29(1):23-9), where inhibition was measured against seven CYP enzymes; CYP3A4 was tested using two different substrates, midazolam and testosterone. In a second study, inhibition of CYP3A4 (midazolam substrate only) was compared for 8 compounds of interest. The test protocol involved one-point measurements in duplicate, where inhibition was measured at a fixed 10 μM concentration of candidate inhibitors. In all cases, the substrate for each CYP enzyme was at a concentration equal to its specific Km value that was independently obtained from an 8-point dose-response study. Based on the observed value for percent inhibition for each test compound, we calculated of an IC50 assuming a competitive mode of inhibition. If percent inhibition for an inhibitor at a concentration of [I] is denoted by P, then: IC50=[I]*(100−P)/P In the single-point assay, [I] is 10 μM. If measured inhibition is 10%, then IC50=10*(100-10)/10=90 μM. […] As discussed in Lin et al. (J Pharm Sci. 2007 September; 96(9):2485-93; doi: 10.1002/jps.20884), CYP inhibition is broadly interpreted as being “potent” if IC50<1 μM, “moderate” if 1 μM<IC50<10 μM, and “weak” if IC50>10 μM."}, "[2]": {"target": "T2, CYP2B6 (Homo sapiens, UniProt P20813)", "T2 construct": "Two studies were conducted in human liver microsomes (HLM); tissue Eurofins G232 panel; host or cells: human liver microsomes", "T2 sequence (P20813 1-491)": "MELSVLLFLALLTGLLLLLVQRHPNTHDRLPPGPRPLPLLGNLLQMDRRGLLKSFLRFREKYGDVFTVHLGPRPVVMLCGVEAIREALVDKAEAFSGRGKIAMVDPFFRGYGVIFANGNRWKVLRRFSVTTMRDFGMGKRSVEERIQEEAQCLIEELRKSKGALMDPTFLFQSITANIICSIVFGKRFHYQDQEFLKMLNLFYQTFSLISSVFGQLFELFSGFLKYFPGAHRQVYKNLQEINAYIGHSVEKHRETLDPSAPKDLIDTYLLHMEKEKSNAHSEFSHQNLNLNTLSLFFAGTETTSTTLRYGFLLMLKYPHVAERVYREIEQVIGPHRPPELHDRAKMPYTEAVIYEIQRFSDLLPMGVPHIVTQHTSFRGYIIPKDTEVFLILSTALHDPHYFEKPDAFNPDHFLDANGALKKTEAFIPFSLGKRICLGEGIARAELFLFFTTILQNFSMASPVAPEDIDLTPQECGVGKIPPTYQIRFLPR", "details": "microsomes", "protocol": "as §1, §2"}, "[3]": {"target": "T3, CYP2C19 (Homo sapiens, UniProt P33261)", "T3 construct": "Two studies were conducted in human liver microsomes (HLM); tissue Eurofins G232 panel; host or cells: human liver microsomes", "T3 sequence (P33261 whole entry)": "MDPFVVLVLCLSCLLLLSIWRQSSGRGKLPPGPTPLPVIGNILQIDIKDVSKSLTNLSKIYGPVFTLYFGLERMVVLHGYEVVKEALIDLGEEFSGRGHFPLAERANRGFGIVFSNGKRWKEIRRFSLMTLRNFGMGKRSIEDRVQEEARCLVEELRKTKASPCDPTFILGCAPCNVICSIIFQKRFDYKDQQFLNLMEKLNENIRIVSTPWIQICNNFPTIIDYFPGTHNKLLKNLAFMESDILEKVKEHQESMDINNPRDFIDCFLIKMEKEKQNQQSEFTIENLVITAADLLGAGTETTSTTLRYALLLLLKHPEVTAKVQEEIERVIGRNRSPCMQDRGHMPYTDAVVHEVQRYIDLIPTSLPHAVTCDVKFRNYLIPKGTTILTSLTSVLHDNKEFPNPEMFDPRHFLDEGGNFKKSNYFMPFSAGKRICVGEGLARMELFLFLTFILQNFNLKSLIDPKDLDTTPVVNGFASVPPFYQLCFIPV", "test": "CYP2C19 inhibition (HLM), omeprazole", "protocol": "as §1, §2"}, "[4]": {"target": "T4, CYP2C9 (Homo sapiens, UniProt P11712)", "T4 construct": "Two studies were conducted in human liver microsomes (HLM); tissue Eurofins G232 panel; host or cells: human liver microsomes", "T4 sequence (P11712 whole entry)": "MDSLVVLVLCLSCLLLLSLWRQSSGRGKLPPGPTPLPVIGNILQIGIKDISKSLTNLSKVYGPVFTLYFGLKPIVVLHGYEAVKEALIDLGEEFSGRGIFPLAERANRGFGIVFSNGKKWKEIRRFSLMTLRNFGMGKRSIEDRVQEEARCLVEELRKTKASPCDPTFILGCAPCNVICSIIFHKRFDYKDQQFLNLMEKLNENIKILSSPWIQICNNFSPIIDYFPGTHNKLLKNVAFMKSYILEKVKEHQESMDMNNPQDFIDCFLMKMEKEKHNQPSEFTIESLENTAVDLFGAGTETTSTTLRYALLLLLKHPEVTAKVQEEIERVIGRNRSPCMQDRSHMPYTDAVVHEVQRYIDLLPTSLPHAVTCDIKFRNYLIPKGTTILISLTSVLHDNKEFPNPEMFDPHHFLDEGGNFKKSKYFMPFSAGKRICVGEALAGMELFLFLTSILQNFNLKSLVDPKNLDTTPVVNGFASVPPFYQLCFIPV", "test": "CYP2C9 inhibition (HLM), diclofenac", "protocol": "as §1, §2"}, "[5]": {"target": "T5, CYP2D6 (Homo sapiens, UniProt P10635)", "T5 construct": "Two studies were conducted in human liver microsomes (HLM); tissue Eurofins G232 panel; host or cells: human liver microsomes", "T5 sequence (P10635 whole entry)": "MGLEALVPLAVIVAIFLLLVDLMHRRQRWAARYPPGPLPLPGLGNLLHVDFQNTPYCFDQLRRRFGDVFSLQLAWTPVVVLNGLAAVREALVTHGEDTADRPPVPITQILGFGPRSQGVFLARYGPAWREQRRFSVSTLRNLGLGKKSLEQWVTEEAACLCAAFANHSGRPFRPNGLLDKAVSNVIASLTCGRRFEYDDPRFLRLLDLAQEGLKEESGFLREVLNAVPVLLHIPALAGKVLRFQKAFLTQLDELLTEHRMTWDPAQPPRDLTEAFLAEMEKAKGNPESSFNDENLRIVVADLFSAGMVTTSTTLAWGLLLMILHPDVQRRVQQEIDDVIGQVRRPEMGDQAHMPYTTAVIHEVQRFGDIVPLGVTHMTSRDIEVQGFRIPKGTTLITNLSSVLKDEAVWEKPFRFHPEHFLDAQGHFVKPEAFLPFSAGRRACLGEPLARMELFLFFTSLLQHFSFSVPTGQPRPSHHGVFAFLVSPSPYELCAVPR", "test": "CYP2D6 inhibition (HLM), dextromethorphan", "protocol": "as §1, §2"}, "[6]": {"target": "T6, CYP3A (Homo sapiens, UniProt P08684)", "T6 construct": "Two studies were conducted in human liver microsomes (HLM); tissue Eurofins G232 panel; host or cells: human liver microsomes", "T6 sequence (P08684 2-503)": "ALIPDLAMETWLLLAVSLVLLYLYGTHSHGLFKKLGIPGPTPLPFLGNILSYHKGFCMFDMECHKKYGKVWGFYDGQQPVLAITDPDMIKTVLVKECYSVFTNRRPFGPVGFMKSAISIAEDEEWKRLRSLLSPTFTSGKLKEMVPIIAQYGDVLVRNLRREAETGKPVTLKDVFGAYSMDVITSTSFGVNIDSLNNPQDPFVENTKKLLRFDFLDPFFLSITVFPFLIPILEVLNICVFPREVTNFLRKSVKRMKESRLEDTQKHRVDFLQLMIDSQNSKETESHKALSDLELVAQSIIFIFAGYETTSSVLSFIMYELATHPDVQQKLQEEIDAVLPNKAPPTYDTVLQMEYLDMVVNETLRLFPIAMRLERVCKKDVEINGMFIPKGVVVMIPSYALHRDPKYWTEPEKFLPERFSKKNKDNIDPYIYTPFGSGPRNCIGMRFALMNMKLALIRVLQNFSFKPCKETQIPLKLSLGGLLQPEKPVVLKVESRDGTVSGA", "details": "HLM", "from_the_text": "as §1\nImidazole (and benzimidazole) containing drugs are ubiquitous in pharmacological practice; however, drug-drug interactions (DDI) have been observed with some imidazole-containing classes, such as the antifungal azoles typified by ketoconazole. It is believed that the imidazole moiety accounts for their ability to inhibit CYP3A, the major DDI enzyme that metabolizes up to 50% of common drugs. The compounds of the disclosure incorporate an imidazole moiety attached to a pyridine ring via the imidazole C-2. They all share an imidazo-hydroxypyridine theme that can bind redox metal ions, while differing in the nature of the X side-chain. The potential of the compounds of the disclosure for DDI was evaluated by screening their inhibition of CYP3A.\nTwo studies were conducted in human liver microsomes (HLM). Lead candidate PTG-630 was tested using the Eurofins G232 panel (Drug Metab Dispos. 2001 January; 29(1):23-9), where inhibition was measured against seven CYP enzymes; CYP3A4 was tested using two different substrates, midazolam and testosterone. In a second study, inhibition of CYP3A4 (midazolam substrate only) was compared for 8 compounds of interest. The test protocol involved one-point measurements in duplicate, where inhibition was measured at a fixed 10 μM concentration of candidate inhibitors. In all cases, the substrate for each CYP enzyme was at a concentration equal to its specific Km value that was independently obtained from an 8-point dose-response study. Based on the observed value for percent inhibition for each test compound, we calculated of an IC50 assuming a competitive mode of inhibition. If percent inhibition for an inhibitor at a concentration of [I] is denoted by P, then: IC50=[I]*(100−P)/P In the single-point assay, [I] is 10 μM. If measured inhibition is 10%, then IC50=10*(100-10)/10=90 μM. […]"}, "[7]": {"test_system": "seven CYP enzymes", "test": "Eurofins G232 panel, CYP inhibition in human liver microsomes", "details": "HLM, 10 μM", "protocol": "as §2"}}, "note": "pIC50: −log10 of the molar value.", "data": [{"smiles": "Cc1ncc(CN2CCOCC2)c(-c2ncc[nH]2)c1O", "note": "[PTG-630]", "values": [{"measurement": "pIC50", "setting": "[1]; phenacetin, from one-point % inhibition at 10 μM, IC50=[I]*(100−P)/P, read-out: Estimated IC50", "value": 4.28}, {"measurement": "P % inhib", "setting": "[1]; substrate phenacetin at Km, Inhib Conc. 1.0E−05 M", "value": 16.1, "unit": "%"}, {"measurement": "pIC50", "setting": "[2]", "value": 3.67}, {"measurement": "P % inhib", "setting": "[2]", "value": 4.5, "unit": "%"}, {"measurement": "pIC50", "setting": "[3]; omeprazole, from one-point % inhibition at 10 μM, IC50=[I]*(100−P)/P, read-out: Estimated IC50", "value": 4.58}, {"measurement": "P % inhib", "setting": "[3]; substrate omeprazole at Km, Inhib Conc. 1.0E−05 M", "value": 27.5, "unit": "%"}, {"measurement": "pIC50", "setting": "[4]; diclofenac, from one-point % inhibition at 10 μM, IC50=[I]*(100−P)/P, read-out: Estimated IC50", "value": 3.55}, {"measurement": "P % inhib", "setting": "[4]; substrate diclofenac at Km, Inhib Conc. 1.0E−05 M", "value": 3.4, "unit": "%"}, {"measurement": "Estimated IC50", "setting": "[5]; dextromethorphan, from one-point % inhibition at 10 μM, IC50=[I]*(100−P)/P", "value": "— None"}, {"measurement": "P % inhib", "setting": "[5]; substrate dextromethorphan at Km, Inhib Conc. 1.0E−05 M", "value": "−0.83", "unit": "%"}, {"measurement": "P % inhib", "setting": "[6]; CYP3A, substrate testosterone at Km, Inhib Conc. 1.0E−05 M", "value": 1.56, "unit": "%"}, {"measurement": "pIC50", "setting": "[6]; CYP3A, testosterone, from one-point % inhibition at 10 μM, IC50=[I]*(100−P)/P, read-out: Estimated IC50", "value": 3.20}, {"measurement": "CYP3A inhibition using testosterone as substrate (in words)", "setting": "[6]; 10 μM", "value": "very weak inhibition"}, {"measurement": "CYP inhibition (in words)", "setting": "[7]", "value": "weak to undetectable"}]}]}
